Laboratory results from ChEMBL document CHEMBL1201862, “PubChem BioAssay data set” (2004).
Activity calls are given as the source filed them.

Columns and labels:
[1] = molecular target: Induced myeloid leukemia cell differentiation protein Mcl-1 (Homo sapiens, UniProt Q07820); assay type: functional
[2] = molecular target: DNA (cytosine-5)-methyltransferase 1 (Homo sapiens, UniProt P26358); assay: DNMT1 methyltransferase inhibitors, confirmation, biochemical, fluorescent molecular beacon (AID 602386); assay type: functional
[3] = THP-1 cell cytotoxicity, dose response, cytotoxicity control for Vif-APOBEC3G degradation inhibitor project, THP-1 cells (AID 1117359); assay type: functional; settings: Human immunodeficiency virus 1, THP-1
Bcl-2-like protein 10 = Bcl-2-like protein 10 (Homo sapiens, UniProt Q9HD36); assay: displacers of TR3 peptide from Bcl-B, primary screen, selectivity assay for Bfl-1 inhibitor project, biochemical, fluorescence polarization, FITC-TR3 peptide (AID 748);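 also: fluorescence polarization from a fluorescein-labelled TR3 peptide binding purified Bcl-B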
Ephrin type-A receptor 4 = Ephrin type-A receptor 4 (Mus musculus, UniProt Q03137); assay: inhibitors of EphA4 binding to KYL peptide, primary screen, biochemical, colorimetric, mouse EphA4 (AID 689); assay type: functional
Cytochrome P450 2C19 = Cytochrome P450 2C19 (Homo sapiens, UniProt P33261); assay: qHTS Assay for Inhibitors and Substrates of Cytochrome P450 2C19. [Related pubchem assays: 410 ]; assay type: ADME; settings: read-out: Potency
Cytochrome P450 3A4 = Cytochrome P450 3A4 (Homo sapiens, UniProt P08684); settings: Potency;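 also: confirmatory qHTS run detecting inhibitors and substrates of CYP3A4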
[4] = molecular target: E3 ubiquitin-protein ligase Mdm2 (Homo sapiens, UniProt Q00987); assay: enhancers of MDM2-luciferase reporter signal, concentration-effect titration, project on inhibitors of MDM2 ubiquitin ligase, cellular assay, luminescent readout, 384-well plate format (AID 1394); assay type: functional;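 also: MDM2 E3 inhibitors raise luminescence so EC50 is for signal enhancement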
[5] = molecular target: Serine/threonine-protein phosphatase PP1-alpha catalytic subunit (Homo sapiens, UniProt P62136); assay: PP1 phosphatase inhibitors, dose response, biochemical, fluorescence (AID 2394)
[6] = molecular target: Heat shock protein HSP 90-alpha (Homo sapiens, UniProt P07900); assay: Luminescence-based dose response biochemical high throughput screening assay for inhibitors of the Heat Shock Protein 90 (HSP90). [Related pubchem assays: 1831 (Summary AID.), 1846 (Confirmation screen.), 1789 (Primary screen.)]
Vero = Vero cell cytotoxicity, cytotoxicity control for flavivirus capping enzyme inhibitors (AID 588742); assay type: functional; settings: Chlorocebus sabaeus
Streptococcus = assay: Group A Streptococcus viability loss, dose response, counter-screen for streptokinase expression inhibitor project, luminescence, BacTiterGlo (AID 1915); assay type: functional, organism-based;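 also: potency for reduction of bacterial viability or growth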
Protein RecA = molecular target: T1, Protein RecA (Mycobacterium tuberculosis, UniProt P9WHJ3); assay: Fluorescence Cell-Free Homogeneous Dose Retest to Identify Inhibitors of RecA-Intein Splicing Activity. [Related pubchem assays (depositor defined):AID2097, AID2223, AID489010, AID492950]; assay type: functional
T1 sequence (P9WHJ3 whole entry): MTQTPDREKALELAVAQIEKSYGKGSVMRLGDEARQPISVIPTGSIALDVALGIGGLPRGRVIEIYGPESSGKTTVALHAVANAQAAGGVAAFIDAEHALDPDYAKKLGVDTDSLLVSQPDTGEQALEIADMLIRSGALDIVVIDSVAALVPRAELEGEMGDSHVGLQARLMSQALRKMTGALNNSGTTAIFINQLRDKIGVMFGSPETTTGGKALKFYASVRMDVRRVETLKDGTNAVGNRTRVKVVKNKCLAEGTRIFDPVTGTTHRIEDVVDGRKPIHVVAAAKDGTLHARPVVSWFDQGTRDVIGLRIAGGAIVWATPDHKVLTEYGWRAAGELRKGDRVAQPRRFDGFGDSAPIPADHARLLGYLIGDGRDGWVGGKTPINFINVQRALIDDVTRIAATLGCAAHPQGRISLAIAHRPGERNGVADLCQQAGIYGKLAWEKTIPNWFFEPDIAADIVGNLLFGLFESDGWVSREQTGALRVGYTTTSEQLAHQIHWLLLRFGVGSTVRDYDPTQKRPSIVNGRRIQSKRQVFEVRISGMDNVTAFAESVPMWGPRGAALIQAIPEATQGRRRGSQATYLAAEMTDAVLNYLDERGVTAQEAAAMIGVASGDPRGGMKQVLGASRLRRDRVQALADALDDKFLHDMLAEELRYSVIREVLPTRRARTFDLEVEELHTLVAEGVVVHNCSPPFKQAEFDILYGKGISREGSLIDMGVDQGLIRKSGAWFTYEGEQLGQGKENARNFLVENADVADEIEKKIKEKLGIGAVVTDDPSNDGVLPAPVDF

[7] = molecular target: T2, Replicative DNA helicase DnaB (Mycobacterium tuberculosis, UniProt P9WMR3); assay: DnaB intein splicing inhibitors, dose response, biochemical, cell-free fluorescence (AID 449749); assay type: functional
T2 sequence (P9WMR3 whole entry): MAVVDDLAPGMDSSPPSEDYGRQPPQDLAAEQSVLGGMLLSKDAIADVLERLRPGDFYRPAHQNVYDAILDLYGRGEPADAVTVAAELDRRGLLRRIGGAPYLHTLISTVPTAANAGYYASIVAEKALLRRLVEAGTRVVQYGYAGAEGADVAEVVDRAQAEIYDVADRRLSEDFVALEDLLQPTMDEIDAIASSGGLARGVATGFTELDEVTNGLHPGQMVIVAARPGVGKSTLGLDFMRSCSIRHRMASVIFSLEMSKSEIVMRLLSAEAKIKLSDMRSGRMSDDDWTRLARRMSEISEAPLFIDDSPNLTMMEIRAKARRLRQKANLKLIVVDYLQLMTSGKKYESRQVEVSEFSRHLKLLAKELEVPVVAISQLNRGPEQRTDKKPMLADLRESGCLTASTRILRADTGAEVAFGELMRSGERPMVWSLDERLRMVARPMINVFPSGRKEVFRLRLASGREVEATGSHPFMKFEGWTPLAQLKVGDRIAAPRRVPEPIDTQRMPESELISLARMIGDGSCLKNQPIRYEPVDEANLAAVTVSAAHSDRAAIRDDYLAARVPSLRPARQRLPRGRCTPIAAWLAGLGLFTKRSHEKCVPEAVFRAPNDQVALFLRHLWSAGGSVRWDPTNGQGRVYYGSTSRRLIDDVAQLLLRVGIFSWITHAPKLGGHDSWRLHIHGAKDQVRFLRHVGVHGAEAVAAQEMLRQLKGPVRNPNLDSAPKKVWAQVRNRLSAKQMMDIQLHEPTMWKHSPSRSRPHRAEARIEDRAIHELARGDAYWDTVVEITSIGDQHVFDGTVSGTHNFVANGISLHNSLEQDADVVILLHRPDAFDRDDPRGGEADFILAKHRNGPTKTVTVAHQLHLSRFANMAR

[8] = cytotoxicity in HEK-293T cells, dose response, cytotoxicity control for TCR NF-kB inhibitor project, luminescence, T-cell screen hits (AID 489026); assay type: functional, cell-based;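 also: cells exposed to compound about 14 hours before the viability readout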
[9] = molecular target: T3, Apoptotic protease-activating factor 1 (Homo sapiens, UniProt O14727); assay type: functional
T3 sequence (O14727 whole entry): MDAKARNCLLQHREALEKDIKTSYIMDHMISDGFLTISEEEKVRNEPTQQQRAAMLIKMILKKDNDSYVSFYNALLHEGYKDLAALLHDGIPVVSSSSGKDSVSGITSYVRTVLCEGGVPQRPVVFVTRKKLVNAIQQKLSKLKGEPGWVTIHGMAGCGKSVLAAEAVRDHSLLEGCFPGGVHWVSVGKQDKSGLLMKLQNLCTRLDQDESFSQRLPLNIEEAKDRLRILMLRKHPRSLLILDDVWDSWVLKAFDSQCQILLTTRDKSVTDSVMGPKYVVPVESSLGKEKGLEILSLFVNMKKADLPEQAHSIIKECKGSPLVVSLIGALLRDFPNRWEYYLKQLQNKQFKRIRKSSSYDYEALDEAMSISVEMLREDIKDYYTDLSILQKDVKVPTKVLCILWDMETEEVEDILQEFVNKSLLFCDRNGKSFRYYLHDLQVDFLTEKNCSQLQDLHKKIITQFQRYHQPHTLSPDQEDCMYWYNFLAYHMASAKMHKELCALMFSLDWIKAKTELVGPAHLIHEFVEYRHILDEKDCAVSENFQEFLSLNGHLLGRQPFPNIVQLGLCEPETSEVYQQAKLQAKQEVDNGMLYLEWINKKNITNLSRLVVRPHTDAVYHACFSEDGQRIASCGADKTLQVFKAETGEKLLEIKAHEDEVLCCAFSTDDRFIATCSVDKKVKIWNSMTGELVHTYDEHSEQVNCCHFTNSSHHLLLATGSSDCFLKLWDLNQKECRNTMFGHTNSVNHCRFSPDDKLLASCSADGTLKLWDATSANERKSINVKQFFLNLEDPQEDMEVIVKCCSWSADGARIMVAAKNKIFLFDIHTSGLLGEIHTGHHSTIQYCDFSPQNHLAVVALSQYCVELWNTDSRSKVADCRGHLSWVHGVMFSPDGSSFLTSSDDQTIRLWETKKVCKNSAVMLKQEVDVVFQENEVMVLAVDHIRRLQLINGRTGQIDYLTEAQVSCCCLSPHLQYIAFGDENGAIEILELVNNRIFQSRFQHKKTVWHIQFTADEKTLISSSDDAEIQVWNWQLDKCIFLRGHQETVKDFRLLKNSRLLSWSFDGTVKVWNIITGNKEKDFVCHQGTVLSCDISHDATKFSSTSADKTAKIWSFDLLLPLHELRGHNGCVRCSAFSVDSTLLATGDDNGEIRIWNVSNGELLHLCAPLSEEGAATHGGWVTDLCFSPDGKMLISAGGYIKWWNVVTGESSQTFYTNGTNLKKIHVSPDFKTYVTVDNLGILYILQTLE

[10] = microbe, parasite or virus in culture; assay type: functional; settings: Mycobacterium tuberculosis
[11] = molecular target: Mitochondrial peptide methionine sulfoxide reductase (Bos taurus, UniProt P54149); assay type: functional;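 also: absorbance read-out, biochemical high-throughput dose-response screen for MsrA inhibitors, confirmatory; recombinant bovine MsrA coupled to E. coli TrxB with NADPH and selenocystamine; potency is for inhibitors of MsrA activity on DMSO substrate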
[12] = cytotoxicity toward NIH3T3 fibroblasts, dose response, counter-screen, cell-based, ATP luminescence, mouse fibroblasts (AID 2010); assay type: functional;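 also: cells exposed to compound for about 90 hours before reading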
[13] = tested on: Streptococcus sp. 'group A'; assay: growth inhibition of control SK(-) GAS strain, dose response, counter-screen for streptokinase expression inhibitor project, luminescence, kanamycin, BacTiterGlo, confirmation (AID 1900); assay type: functional, organism-based
INS1 = assay: beta cell apoptosis inhibitors, cytokine rescue, dose response, luminescence, retest (AID 449756); assay type: functional, cell-based; settings: Rattus norvegicus;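 also: cell death triggered by IL-1 beta plus TNF-alpha plus IFN-gamma mixture; protective hits raise ATP signal compared with cytokine alone wells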
[14] = molecular target: Protein-tyrosine kinase 2-beta (Homo sapiens, UniProt Q14289);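 also: potency of inhibitors of PYK2 kinase phosphorylation of poly-GT substrate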
[15] = inhibitors of intracellular T. cruzi replication, confirmation, NIH3T3 host cells, beta-gal luminescence (AID 2044); assay type: functional, cell-based;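 also: intracellular parasites grown in NIH/3T3 mouse fibroblasts as host cells; luminescent beta-galactosidase reporter signal from transgenic T. cruzi replicating inside host cells; inhibitors lower the luminescence signal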
[16] = molecular target: Serine/threonine-protein phosphatase (Homo sapiens, UniProt Q9BPW0); assay: PP5 phosphatase inhibitors, dose response, biochemical, fluorescence (AID 2395)
[17] = molecular target: 5-hydroxytryptamine receptor 1A (Homo sapiens, UniProt P08908); assay type: functional
Chain of 5-hydroxytryptamine receptor 1A (P08908 whole entry): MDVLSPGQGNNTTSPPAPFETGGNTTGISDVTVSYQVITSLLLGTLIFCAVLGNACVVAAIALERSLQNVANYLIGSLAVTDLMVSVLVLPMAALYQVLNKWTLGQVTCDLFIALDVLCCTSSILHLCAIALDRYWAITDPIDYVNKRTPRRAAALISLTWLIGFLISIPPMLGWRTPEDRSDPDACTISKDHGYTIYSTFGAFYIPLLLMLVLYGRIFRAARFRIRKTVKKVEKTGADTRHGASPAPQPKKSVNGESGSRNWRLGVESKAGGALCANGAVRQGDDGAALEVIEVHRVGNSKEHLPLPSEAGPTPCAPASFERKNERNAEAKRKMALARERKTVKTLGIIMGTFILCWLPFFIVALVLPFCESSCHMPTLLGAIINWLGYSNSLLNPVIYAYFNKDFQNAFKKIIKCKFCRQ

Chain of Protein-tyrosine kinase 2-beta (Q14289 whole entry): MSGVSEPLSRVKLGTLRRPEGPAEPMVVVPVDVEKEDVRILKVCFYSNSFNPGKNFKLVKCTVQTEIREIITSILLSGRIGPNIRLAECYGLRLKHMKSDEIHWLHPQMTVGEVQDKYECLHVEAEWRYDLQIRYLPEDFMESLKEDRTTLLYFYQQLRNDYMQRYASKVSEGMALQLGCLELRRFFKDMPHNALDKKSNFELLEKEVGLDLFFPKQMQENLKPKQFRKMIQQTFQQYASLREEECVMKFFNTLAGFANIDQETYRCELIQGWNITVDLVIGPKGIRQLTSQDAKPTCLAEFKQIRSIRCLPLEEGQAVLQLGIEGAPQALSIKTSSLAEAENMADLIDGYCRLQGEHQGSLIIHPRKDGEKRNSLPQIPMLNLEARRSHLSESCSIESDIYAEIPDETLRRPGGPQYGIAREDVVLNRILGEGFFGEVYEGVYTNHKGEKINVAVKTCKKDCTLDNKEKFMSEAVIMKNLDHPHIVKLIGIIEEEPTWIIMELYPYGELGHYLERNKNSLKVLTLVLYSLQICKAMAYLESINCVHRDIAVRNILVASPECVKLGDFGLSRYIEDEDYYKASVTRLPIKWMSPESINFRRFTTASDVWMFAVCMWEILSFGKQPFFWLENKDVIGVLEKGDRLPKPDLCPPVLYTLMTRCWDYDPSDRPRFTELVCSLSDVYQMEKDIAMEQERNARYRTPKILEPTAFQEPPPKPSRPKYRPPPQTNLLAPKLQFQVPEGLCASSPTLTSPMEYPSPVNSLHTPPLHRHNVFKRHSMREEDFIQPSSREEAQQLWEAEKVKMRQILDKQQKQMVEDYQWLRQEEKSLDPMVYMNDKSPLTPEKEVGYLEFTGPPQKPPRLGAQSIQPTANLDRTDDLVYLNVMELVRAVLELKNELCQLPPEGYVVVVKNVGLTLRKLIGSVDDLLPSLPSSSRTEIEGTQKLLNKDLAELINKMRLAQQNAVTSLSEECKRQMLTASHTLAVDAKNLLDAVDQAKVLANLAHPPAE
Chain of E3 ubiquitin-protein ligase Mdm2 (Q00987 whole entry): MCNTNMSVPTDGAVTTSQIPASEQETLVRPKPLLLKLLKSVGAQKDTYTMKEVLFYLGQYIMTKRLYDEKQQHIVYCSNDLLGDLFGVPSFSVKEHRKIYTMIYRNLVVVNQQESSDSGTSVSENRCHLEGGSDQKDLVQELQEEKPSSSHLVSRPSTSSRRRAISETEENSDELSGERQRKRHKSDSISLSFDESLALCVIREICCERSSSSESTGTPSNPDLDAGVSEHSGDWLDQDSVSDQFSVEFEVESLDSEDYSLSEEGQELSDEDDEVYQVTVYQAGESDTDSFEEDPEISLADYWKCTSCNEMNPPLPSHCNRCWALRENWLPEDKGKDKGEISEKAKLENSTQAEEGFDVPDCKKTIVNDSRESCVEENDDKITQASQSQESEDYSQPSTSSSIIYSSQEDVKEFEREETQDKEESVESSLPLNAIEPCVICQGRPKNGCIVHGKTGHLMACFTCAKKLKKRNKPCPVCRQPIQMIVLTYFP
Chain of Serine/threonine-protein phosphatase (Q9BPW0 whole entry): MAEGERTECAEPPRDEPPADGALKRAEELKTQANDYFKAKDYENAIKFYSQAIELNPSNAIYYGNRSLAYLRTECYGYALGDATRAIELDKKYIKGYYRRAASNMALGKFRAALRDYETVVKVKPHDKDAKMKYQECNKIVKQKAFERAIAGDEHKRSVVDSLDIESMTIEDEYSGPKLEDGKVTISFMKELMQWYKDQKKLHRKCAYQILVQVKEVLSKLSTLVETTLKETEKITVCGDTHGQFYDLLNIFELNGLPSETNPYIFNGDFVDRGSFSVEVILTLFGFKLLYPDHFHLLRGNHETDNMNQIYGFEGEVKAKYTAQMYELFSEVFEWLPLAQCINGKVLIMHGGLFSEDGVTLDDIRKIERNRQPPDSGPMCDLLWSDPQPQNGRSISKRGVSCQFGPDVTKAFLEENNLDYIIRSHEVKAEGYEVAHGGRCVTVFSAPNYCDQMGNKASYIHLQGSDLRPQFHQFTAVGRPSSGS
Chain of DNA (cytosine-5)-methyltransferase 1 (P26358 whole entry): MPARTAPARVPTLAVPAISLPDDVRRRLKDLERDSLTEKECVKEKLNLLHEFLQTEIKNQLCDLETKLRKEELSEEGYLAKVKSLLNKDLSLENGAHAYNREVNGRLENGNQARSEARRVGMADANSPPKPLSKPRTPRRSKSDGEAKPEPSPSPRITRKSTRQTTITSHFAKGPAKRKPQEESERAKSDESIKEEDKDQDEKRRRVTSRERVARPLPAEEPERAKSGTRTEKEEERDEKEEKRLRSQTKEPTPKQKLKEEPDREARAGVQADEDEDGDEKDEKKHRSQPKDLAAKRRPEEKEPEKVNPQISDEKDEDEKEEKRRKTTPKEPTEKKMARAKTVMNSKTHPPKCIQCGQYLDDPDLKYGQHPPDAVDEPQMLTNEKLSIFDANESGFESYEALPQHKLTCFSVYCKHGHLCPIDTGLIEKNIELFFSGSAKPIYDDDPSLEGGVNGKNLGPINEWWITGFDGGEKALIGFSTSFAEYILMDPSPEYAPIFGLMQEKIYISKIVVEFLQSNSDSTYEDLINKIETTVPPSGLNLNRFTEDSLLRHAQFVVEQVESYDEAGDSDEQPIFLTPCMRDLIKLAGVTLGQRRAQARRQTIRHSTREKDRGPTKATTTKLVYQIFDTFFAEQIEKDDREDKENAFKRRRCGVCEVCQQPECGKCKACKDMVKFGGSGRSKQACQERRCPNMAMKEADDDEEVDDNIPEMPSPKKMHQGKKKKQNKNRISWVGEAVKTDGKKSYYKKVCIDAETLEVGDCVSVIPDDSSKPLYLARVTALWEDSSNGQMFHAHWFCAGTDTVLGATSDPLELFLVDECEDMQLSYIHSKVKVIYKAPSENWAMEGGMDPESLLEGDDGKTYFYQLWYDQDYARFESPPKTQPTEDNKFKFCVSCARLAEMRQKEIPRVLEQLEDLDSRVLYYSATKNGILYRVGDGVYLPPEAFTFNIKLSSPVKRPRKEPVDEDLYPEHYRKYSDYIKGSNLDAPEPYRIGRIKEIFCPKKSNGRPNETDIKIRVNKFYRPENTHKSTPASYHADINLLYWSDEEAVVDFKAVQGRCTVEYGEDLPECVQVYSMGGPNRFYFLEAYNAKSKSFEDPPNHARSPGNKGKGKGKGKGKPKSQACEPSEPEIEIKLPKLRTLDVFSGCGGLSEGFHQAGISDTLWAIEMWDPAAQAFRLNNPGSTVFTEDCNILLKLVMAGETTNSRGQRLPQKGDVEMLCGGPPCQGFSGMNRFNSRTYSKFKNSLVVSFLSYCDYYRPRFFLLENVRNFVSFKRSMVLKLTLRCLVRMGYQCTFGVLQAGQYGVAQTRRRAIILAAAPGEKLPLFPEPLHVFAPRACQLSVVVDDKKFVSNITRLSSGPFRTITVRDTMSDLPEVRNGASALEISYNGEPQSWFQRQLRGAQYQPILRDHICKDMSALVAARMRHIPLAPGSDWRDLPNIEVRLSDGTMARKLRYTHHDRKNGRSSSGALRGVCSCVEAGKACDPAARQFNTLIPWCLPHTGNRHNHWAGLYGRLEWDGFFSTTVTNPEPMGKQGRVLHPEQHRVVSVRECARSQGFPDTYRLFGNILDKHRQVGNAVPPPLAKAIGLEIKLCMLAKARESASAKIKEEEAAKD
Chain of Serine/threonine-protein phosphatase PP1-alpha catalytic subunit (P62136 whole entry): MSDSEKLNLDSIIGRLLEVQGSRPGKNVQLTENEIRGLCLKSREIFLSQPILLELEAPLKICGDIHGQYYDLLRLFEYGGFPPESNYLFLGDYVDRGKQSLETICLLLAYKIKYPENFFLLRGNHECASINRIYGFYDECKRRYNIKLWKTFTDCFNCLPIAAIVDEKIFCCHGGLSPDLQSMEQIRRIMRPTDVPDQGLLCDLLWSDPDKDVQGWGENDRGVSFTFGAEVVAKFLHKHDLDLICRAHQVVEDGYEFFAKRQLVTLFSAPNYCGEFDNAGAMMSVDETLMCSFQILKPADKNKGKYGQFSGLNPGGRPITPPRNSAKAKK
Chain of Bcl-2-like protein 10 (Q9HD36 whole entry): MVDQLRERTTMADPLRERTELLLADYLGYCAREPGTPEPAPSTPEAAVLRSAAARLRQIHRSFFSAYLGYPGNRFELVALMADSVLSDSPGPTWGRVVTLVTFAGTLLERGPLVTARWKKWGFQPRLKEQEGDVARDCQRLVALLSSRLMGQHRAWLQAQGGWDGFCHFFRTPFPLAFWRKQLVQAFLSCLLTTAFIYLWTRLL
Chain of Mitochondrial peptide methionine sulfoxide reductase (P54149 whole entry): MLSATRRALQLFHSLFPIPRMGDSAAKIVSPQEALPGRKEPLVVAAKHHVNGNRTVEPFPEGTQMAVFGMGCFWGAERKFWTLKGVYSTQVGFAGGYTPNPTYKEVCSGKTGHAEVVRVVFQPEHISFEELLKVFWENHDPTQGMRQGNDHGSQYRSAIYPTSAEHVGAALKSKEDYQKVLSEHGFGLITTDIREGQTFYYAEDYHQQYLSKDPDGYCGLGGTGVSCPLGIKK

O=C1CCCC2=C1C(c1ccco1)Nc1ccc3ccccc3c12 (stereo not given)
IC50 [1]: 3.2 µM (active) | IC50 [2]: 6.62 µM (active) | CC50 [3]: > 40 µM (active) | IC50 (Bcl-2-like protein 10): 7.53 µM (active) | IC50 (Ephrin type-A receptor 4): 11.8 µM (active)

O=c1cc(-c2ccccc2O)oc2c1ccc1ccccc12
AC50 (Cytochrome P450 2C19): 0.251 µM (inconclusive) | AC50 (Cytochrome P450 3A4): 15.8 µM (inconclusive)

CCN(CC)C(=O)CN1CCN(c2ncccn2)CC1
EC50 [4]: 16.1 µM (not active)

Cc1ccccc1NC1=C/C(=N\S(=O)(=O)c2cccs2)c2ccccc2C1=O
IC50 [5]: > 22.3 µM (not active) | IC50 [6]: 0.438 µM (active) | CC50 (Vero): 4.33 µM (active) | EC50 (Streptococcus): 4.55 µM (active) | EC50 (Protein RecA): 0.654 µM (active) | AC50 [7]: > 120 µM (inactive) | IC50 [8]: 0.44 µM (active) | IC50 [9]: 0.335 µM (active) | CC50 [10]: 3.13 µM (active) | IC50 [11]: 692 µM (inactive) | EC50 [12]: 1.95 µM (active) | EC50 [13]: 0.701 µM (active) | AC50 (INS1): 0.413 µM (active) | IC50 [14]: > 69.5 µM (not active) | EC50 [15]: 1.04 µM (active) | IC50 [16]: 1.83 µM (active)

CCN1CC=C(c2c[nH]c3ccccc23)CC1
EC50 [17]: > 50 µM (not active)
